Data taken from ChEMBL document CHEMBL1147586, “Discovery of a dihydropyrimidine series of molecules that selectively mimic the biological actions of calcitonin” (Bioorg Med Chem Lett, 2004).
Activity calls are given as the source filed them. The calls are words filed in the database; no cut-off is given here.

Key:
HEK293 [1] = assay: In vitro cAMP accumulation in HEK 293 cells.; type: functional, cell-based; details: Homo sapiens
HEK293 [2] = assay: Fold induction of cAMP accumulation in HEK 293 cells at 75u M.; type: functional, Homo sapiens
HEK293 [3] = assay: Fold increase expressed as pmol of cAMP accumulation by the compound/basal level of cAMP produced by EPTH1-1HEK cells at 25 uM; No activity; type: functional, cell-based; details: Homo sapiens
HEK293 [4] = assay: Fold increase expressed as pmol of cAMP accumulation by the compound/basal level of cAMP produced by CGRP1-7HEK cells at 25 uM; No activity; type: functional, cell-based; details: Homo sapiens
HEK293 [5] = assay: Fold increase expressed as pmol of cAMP accumulation by the compound/basal level of cAMP produced at 25 uM in multiplex cell based assay; 4.7/4.0; type: functional, Homo sapiens
HEK293 [6] = assay: Fold increase expressed as pmol of cAMP accumulation by the compound/basal level of cAMP produced by GLP1-7HEK cells at 25 uM; No activity; type: functional, cell-based; details: Homo sapiens
HEK293 [7] = assay: Fold increase expressed as pmol of cAMP accumulation by the compound/basal level of cAMP produced by GIP-1HEK cells at 25 uM; No activity; type: functional, cell-based; details: Homo sapiens
HEK293 [8] = assay: Fold increase expressed as pmol of cAMP accumulation by the compound/basal level of cAMP produced by CTR-2HEK cells at 25 uM; type: functional, Homo sapiens
HEK293 [9] = assay: Fold increase expressed as pmol of cAMP accumulation by the compound/basal level of cAMP produced by GLU-1HEK cells at 25 uM; No activity; type: functional, cell-based; details: Homo sapiens
[10] = Bioavailability in rat after peroral administration at 30 mpk; type: ADME, organism-based; details: in vivo, po, 30 mg/kg, read-out: Bioavailabiility
monkey [11] = assay: Bioavailability in monkey after peroral administration at 10 mpk; details: in vivo, po, 10 mg/kg, read-out: Bioavailabiility
[12] = Bioavailability in rat after intravenous administration at 1 mpk; type: ADME, organism-based; details: in vivo, read-out: Bioavailabiility
monkey [13] = assay: Bioavailability in monkey after intravenous administration at 1 mpk; details: in vivo, read-out: Bioavailabiility
HEK293 [14] = assay: Fold increase expressed as pmol of cAMP accumulation by the compound/basal level of cAMP produced at 25 uM in multiplex cell based assay; 4.5/5.7; type: functional, Homo sapiens
HEK293 [15] = assay: Fold increase expressed as pmol of cAMP accumulation by the compound/basal level of cAMP produced at 25 uM in multiplex cell based assay; 5.1/4.4; type: functional, Homo sapiens
HEK293 [16] = assay: Fold increase expressed as pmol of cAMP accumulation by the compound/basal level of cAMP produced at 25 uM in multiplex cell based assay; 4.7/3.2; type: functional, Homo sapiens
Rattus norvegicus = assay: Bioavailability in rat after peroral administration at 100 mpk; type: functional, organism-based
[17] = Bioavailability in rat after intravenous administration at 2 mpk; type: ADME, organism-based; details: in vivo, read-out: Bioavailabiility

| SMILES | EC50 (HEK293 [1]) | Fold-induction (HEK293 [2]) | further results |
| --- | --- | --- | --- |
| CCCC1=C(C(=O)OCc2ccccc2)C(c2cccc(C)c2)NC(=O)N1 (centres undefined) | 5.2 µM | 36 |  |
| CCC1=C([N+](=O)[O-])C(c2ccc3c(c2)OCO3)NC(=O)N1 (centres undefined) |  |  | Fold-induction (HEK293 [3]): inactive; Fold-induction (HEK293 [4]): inactive; Fold-induction (HEK293 [5]): 4.7; Fold-induction (HEK293 [6]): inactive; Fold-induction (HEK293 [7]): inactive; Fold-induction (HEK293 [8]): 12; Fold-induction (HEK293 [9]): inactive |
| CCCC1=C(C(=O)OCc2ccc(C(=O)NCCCN(C)C)cc2)C(c2cccc(C)c2)NC(=O)N1 (centres undefined) | 1.4 µM | 55 |  |
| COc1ccc(COC(=O)C2=C(C(C)C)NC(=O)NC2c2cccc(C)c2)cc1 (centres undefined) | 5.8 µM | 33 |  |
| CCCC1=C(C(=O)OCc2ccc(C(=O)NCCCN3CCCCC3)cc2)C(c2cccc(C)c2)NC(=O)N1 (centres undefined) | 1.9 µM | 52 |  |
| CCCC1=C(C(=O)OCc2ccc(C(=O)NCCN3CCCCC3)cc2)C(c2cccc(C)c2)NC(=O)N1 (centres undefined) | 1.3 µM | 51 | bioavailability [10]: 65%; bioavailability (monkey [11]): 13%; bioavailability [12]: 65%; bioavailability (monkey [13]): 13% |
| CC1=C(C(=O)OC2CCCC2C)C(c2ccccc2)NC(=O)N1 (centres undefined) |  |  | Fold-induction (HEK293 [3]): inactive; Fold-induction (HEK293 [4]): inactive; Fold-induction (HEK293 [14]): 4.5; Fold-induction (HEK293 [6]): inactive; Fold-induction (HEK293 [7]): inactive; Fold-induction (HEK293 [8]): 8; Fold-induction (HEK293 [9]): inactive |
| CC1=C(C(=O)OCC(F)(F)C(F)(F)F)C(c2ccccc2)NC(=O)N1 (centres undefined) |  |  | Fold-induction (HEK293 [3]): inactive; Fold-induction (HEK293 [4]): inactive; Fold-induction (HEK293 [6]): inactive; Fold-induction (HEK293 [15]): 5.1; Fold-induction (HEK293 [7]): inactive; Fold-induction (HEK293 [8]): 9; Fold-induction (HEK293 [9]): inactive |
| CCCC1=C(C(=O)OCc2ccc(C(=O)NCCN3CCOCC3)cc2)C(c2cccc(C)c2)NC(=O)N1 (centres undefined) | 4.3 µM | 50 |  |
| CCCC1=C(C(=O)OCc2ccc(C(=O)NCCCN3CCN(C)CC3)cc2)C(c2cccc(C)c2)NC(=O)N1 (centres undefined) | 4.3 µM | 55 |  |
| CCCC1=C(C(=O)OCc2ccc(C(=O)OC)cc2)C(c2cccc(C)c2)NC(=O)N1 (centres undefined) | 1 µM | 42 |  |
| CCCC1=C(C(=O)OCc2ccc(C(=O)O)cc2)C(c2cccc(C)c2)NC(=O)N1 (centres undefined) | 3.4 µM | 61 |  |
| CCCCCC1=C(C(=O)OCC)C(c2cccc(C)c2)NC(=O)N1 (centres undefined) |  | 31 |  |
| CCCC1=C(C(=O)OCC)C(c2cccc(Cl)c2)NC(=O)N1 (centres undefined) | 6.8 µM | 21 |  |
| C=CCOC(=O)C1=C(C)NC(=O)NC1c1ccc2c(c1)OCO2 (centres undefined) |  |  | Fold-induction (HEK293 [3]): inactive; Fold-induction (HEK293 [4]): inactive; Fold-induction (HEK293 [6]): inactive; Fold-induction (HEK293 [7]): inactive; Fold-induction (HEK293 [8]): 8; Fold-induction (HEK293 [9]): inactive; Fold-induction (HEK293 [16]): 4.7 |
| CCCC1=C(C(=O)OCC)C(c2cccc(C)c2)NC(=O)N1 (centres undefined) | 7.5 µM | 35 | bioavailability (Rattus norvegicus): 2%; bioavailability [17]: 2% |
| CCCC1=C(C(=O)OCC)C(c2cc(C)cc(C)c2)NC(=O)N1 (centres undefined) | 9.5 µM | 34 |  |
| CCCC1=C(C(=O)OCc2ccc(C(=O)N(C)C)cc2)C(c2cccc(C)c2)NC(=O)N1 (centres undefined) | 3.4 µM | 40 |  |
| CC(C)C[C@H](NC(=O)[C@H](CCCCN)NC(=O)CNC(=O)[C@H](CC(C)C)NC(=O)[C@@H](NC(=O)[C@@H]1CSSC[C@H](N)C(=O)N[C@@H](CO)C(=O)N[C@@H](CC(N)=O)C(=O)N[C@@H](CC(C)C)C(=O)N[C@@H](CO)C(=O)N[C@@H]([C@@H](C)O)C(=O)N1)C(C)C)C(=O)N[C@@H](CO)C(=O)N[C@@H](CCC(N)=O)C(=O)N[C@@H](CCC(=O)O)C(=O)N[C@@H](CC(C)C)C(=O)N[C@@H](Cc1c[nH]cn1)C(=O)N[C@@H](CCCCN)C(=O)N[C@@H](CC(C)C)C(=O)N[C@@H](CCC(N)=O)C(=O)N[C@H](C(=O)N[C@@H](Cc1ccc(O)cc1)C(=O)N1CCC[C@H]1C(=O)N[C@@H](CCCNC(=N)N)C(=O)N[C@H](C(=O)N[C@@H](CC(N)=O)C(=O)N[C@H](C(=O)NCC(=O)N[C@@H](CO)C(=O)NCC(=O)N[C@H](C(=O)N1CCC[C@H]1C(N)=O)[C@@H](C)O)[C@@H](C)O)[C@@H](C)O)[C@@H](C)O [CALCITONIN SALMON] | 0.003 µM | 40 |  |
| CC1=C(C(=O)OCc2ccccc2)C(c2ccccc2)NC(=O)N1 (centres undefined) | > 20 µM | 17 |  |
| CCCC1=C(C(=O)OCc2ccc(C(=O)N(C)CCN3CCCCC3)cc2)C(c2cccc(C)c2)NC(=O)N1 (centres undefined) | 4.4 µM | 55 |  |
| CC1=C(C(=O)OCc2ccccc2)C(c2cccc(C)c2)NC(=O)N1 (centres undefined) | 15 µM | 23 |  |
